In patent US7778779B2, “Method of identifying a chemical entity which is a hydroxylase modulator” (Isis Innovation Limited, priority 2002, dated 2010):

Experiments:
Assay type in all cases: biochemical
FIH = target: T1, FIH (Homo sapiens, UniProt Q9NWT6); assay: kinetic analyses of N-oxaloyl amino acid inhibitors of FIH; settings: for IC50: inhibition of FIH, kinetic analyses
T1 construct: His6 (N, cleaved yes); made in house; host or cells: Escherichia coli BL21(DE3), pET28a(+)

PHD isozymes = assay: inhibition of PHD isozymes by N-oxaloylalanine enantiomers; settings: S- versus R-enantiomer
From the text: (§1) Such inhibitors may or may not chelate to an active site metal.

[1] = test system: procollagen prolyl-hydroxylase; assay: inhibition of procollagen prolyl-hydroxylase by N-oxaloylalanine enantiomers; settings: S- versus R-enantiomer
From the text: as §1

T1 sequence (Q9NWT6 whole entry): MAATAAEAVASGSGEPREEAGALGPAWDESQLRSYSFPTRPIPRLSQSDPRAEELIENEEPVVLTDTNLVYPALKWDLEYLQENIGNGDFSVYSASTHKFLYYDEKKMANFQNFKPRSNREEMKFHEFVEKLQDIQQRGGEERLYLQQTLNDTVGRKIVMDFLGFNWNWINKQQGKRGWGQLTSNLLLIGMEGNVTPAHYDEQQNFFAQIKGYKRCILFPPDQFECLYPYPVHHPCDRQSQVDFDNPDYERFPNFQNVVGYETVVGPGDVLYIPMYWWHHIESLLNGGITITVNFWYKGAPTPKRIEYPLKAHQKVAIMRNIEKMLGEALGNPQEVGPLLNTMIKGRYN

C[C@H](NC(=O)C(=O)O)C(=O)O (single isomer, unassigned) [R-enantiomer, N-oxaloylalanine]
IC50 (FIH): 400 µM

O=C(O)CNC(=O)C(=O)O [NOG, N-oxaloylglycine, reference compound]
inhibition of FIH, in words (FIH; used as 2OG analogue in co-crystallisation): FIH inhibitor

C[C@H](NC(=O)C(=O)O)C(=O)O [S-enantiomer, N-oxaloylalanine]
relative potency of enantiomers (reversed selectivity) (PHD isozymes): more potent
IC50 (FIH): 2500 µM
relative potency of enantiomers (reversed selectivity) [1]: more potent
